Earlier results, collected in patent US7314641B1, “High-bioavailability particle coated with fungicide and polymer” (Everest Pharm. Industrial Co., Ltd., priority 2007, dated 2008).

How the values were obtained:
[1] = prior art statement on the compound of U.S. Pat. No. 4,267,179

In the case of `CCC(C)n1ncn(-c2ccc(N3CCN(c4ccc(OCC5COC(Cn6cncn6)(c6ccc(Cl)cc6Cl)O5)cc4)CC3)cc2)c1=O` (single isomer, unassigned; (+)) [itraconazole, (+)-cis-4-[4-[4-[-4[[2-(2,4-dichlorophenyl)-2-(1H-1,2,4-triazol-1-ylmethyl)-1,3-dioxolan-4-yl]methoxy]phenyl]-1-piperazinyl]phenyl-2,4-dihydro-2-1(1-methylpropyl)-3H-1,2,4-triazol-3-one], the water solubility [1] is given as “not water soluble” and the “Metabolic period in human beings” value is given as 96 h.
